What was measured:
[1] = system: dandruff average condition profile; experiment: Signature-free query for agents with gene expression profiles most different from a query condition (dandruff) (FIG. 17); conditions: greater distance = more likely to reverse the condition
Source text: Turning next to the method 110, FIG. 10 depicts a method 150 for performing a query for perturbagens eliciting a biological response that is dissimilar to that induced by a condition (e.g., chemicals likely to reverse a particular condition in a cell) (block 112). The method includes determining an average condition profile to use as a query (block 152), as described above. Specifically, the average condition profile (also referred to as an “adjusted condition gene expression profile”) may be calculated by finding the average expression value for each of the subset of probes used to learn the expression matrix. That is, if all of probes ID1-IDN (referring to FIG. 13) were used to learn the expression matrix, the average expression profile for a condition tested in instances 3A-10A and 3B-10B would include an average expression value for probe ID1: The average condition profile is projected onto the projection space (block 154). The distance from the average condition profile to each of the perturbagens in the projection space matrix is determined (block 156) and, at least in some embodiments, the perturbagens are ranked according to the distance of each in the projection space from the average condition profile (block 158). In some embodiments, the distance is calculated as a cosine distance. In some embodiments, the distance is calculated as a Euclidean distance. […]

MCF7 cell line = experiment: Signature-free query for agents with biological activity similar to estradiol in cell line MCF7 (FIG. 15); assay type: cell-based; conditions: cell line MCF7 (expresses estrogen receptors); top five and bottom five chemicals
Source text: Using the projection space matrix, it is possible to determine the similarity (or difference) between gene expression profiles in the projection space. The methods 100 and 110, for example, perform queries for similar biological activity (block 108) and biological dissimilarity (i.e., agents most likely to reverse a clinical endpoint) (block 112), respectively, by looking at the distances between instances depicted in the projection space matrix. Turning first to the method 100, FIG. 9 depicts a method 140 for performing a query for similar biological activity between instances mapping to two points in the projection space (e.g., for performing a query for similar activity between perturbagens) (block 108). […]
A query perturbagen (also referred to as a query agent) is then selected from the perturbagens in the projection space matrix (block 144). […] The distance from the query perturbagen in the projection space is calculated for each instance (or for a selected subset of instances) in the projection space matrix (block 146). In some embodiments, the distance is calculated as a cosine distance. In some embodiments, the distance is calculated as a Euclidean distance. […]
With reference to FIGS. 15 and 16, the effect of different perturbagens on different cell types at the transcriptional level is readily apparent. […]

## CC(C)(C)C(=O)C(Oc1ccc(Cl)cc1)n1ccnc1 (stereo not shown) [Climbazole]
[1]
  ranking according to distance from the query condition: more distant from the query condition

## CCN(CC)CCOc1ccc(C(=C(Cl)c2ccccc2)c2ccccc2)cc1 [Clomifene]
MCF7 cell line
  ranking according to distance from query perturbagen estradiol: most dissimilar

## C[C@]12CC[C@@H]3c4ccc(O)cc4C[C@@H](CCCCCCCCC[S+]([O-])CCCC(F)(F)C(F)(F)F)[C@H]3[C@@H]1CC[C@@H]2O (stereo partly shown) [Fulvestrant]
MCF7 cell line
  ranking according to distance from query perturbagen estradiol: most dissimilar

## CC(=O)N1CCN(c2ccc(OCC3COC(Cn4ccnc4)(c4ccc(Cl)cc4Cl)O3)cc2)CC1 (stereo not shown) [Ketocanozole]
[1]
  ranking according to distance from the query condition: more distant from the query condition
